Tests used:
[1] = molecular target: T1, TgGNA1 (Toxoplasma gondii, UniProt A0A7J6K6Y4); test: HPLC-MS/MS and colorimetric GNA1 assay; assay type: biochemical; details: […] AcCoA, […] GlcN-6P, […] Tris-HCl, […] NaCl, pH […], room temperature
T1 construct: gene TGRH88_028800
T1 sequence (A0A7J6K6Y4 1-516): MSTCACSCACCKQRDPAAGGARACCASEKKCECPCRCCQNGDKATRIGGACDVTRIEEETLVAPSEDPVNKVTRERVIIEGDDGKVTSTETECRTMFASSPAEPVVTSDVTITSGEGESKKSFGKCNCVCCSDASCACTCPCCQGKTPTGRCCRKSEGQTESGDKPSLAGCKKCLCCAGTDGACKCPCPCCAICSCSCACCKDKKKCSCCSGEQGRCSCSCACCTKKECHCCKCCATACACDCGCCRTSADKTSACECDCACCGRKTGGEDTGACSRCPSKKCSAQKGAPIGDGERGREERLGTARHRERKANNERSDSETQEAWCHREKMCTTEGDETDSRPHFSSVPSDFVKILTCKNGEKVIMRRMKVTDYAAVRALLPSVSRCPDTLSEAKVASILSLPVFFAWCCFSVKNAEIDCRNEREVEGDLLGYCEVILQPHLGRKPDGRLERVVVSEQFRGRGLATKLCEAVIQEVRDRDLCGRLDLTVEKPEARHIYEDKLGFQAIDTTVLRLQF

[2] = molecular target: T2, PfGNA1 (Plasmodium falciparum, UniProt C6KTC5); test: HPLC-MS/MS GNA1 assay; assay type: biochemical; details: 500 µM AcCoA, 500 µM GlcN-6P, 25 mM Tris-HCl, 150 mM NaCl, pH 7.2, room temperature
T2 construct: gene PF3D7_0629000; deficiently expressed
T2 sequence (C6KTC5 1-291): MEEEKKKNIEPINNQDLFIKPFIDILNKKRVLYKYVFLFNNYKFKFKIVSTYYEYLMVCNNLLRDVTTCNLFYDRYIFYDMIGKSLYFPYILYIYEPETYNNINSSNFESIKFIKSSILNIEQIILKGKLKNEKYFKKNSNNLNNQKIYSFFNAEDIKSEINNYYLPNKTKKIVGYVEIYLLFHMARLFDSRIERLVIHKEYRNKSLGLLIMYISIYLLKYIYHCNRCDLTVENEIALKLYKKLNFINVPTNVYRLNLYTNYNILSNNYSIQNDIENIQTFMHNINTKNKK

Row | Structure (SMILES) | HPLC-MS/MS and colorimetric GNA1 assay [1] | HPLC-MS/MS GNA1 assay [2]
1 | CC(=O)SCCNC(=O)CCNC(=O)[C@H](O)C(C)(C)COP(=O)(O)OP(=O)(O)OC[C@H]1O[C@@H](n2cnc3c(N)ncnc32)[C@H](O)[C@@H]1OP(=O)(O)O [AcCoA] | The enzymes used GlcN-6P as substrate and AcCoA as donor to produce GlcNAc-6P | PfGNA1 and TaGNA1 were deficiently expressed, they also showed residual activity as detected by HPLC-MS/MS
2 | N[C@H]1C(O)O[C@H](COP(=O)(O)O)[C@@H](O)[C@@H]1O (stereo partly shown) [GlcN-6P] | TgGNA1 distinctly acetylated GlcN-6P | PfGNA1 and TaGNA1 were deficiently expressed, they also showed residual activity as detected by HPLC-MS/MS
